Measurements reported in patent publication US6737383B1, “Herbicidal oxadiazolidines” (priority 1999, dated 2004).

Experiments:
rape = experiment: Test B pre/postemergence rape; format: in vivo, Brassica napus
In short: (§1)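 Response is a visual 0-to-10 score relative to untreated plants, where 0 means no effect and 10 means complete control, taken twelve to sixteen days after application. Treatments went onto soil at planting and onto foliage of 1- to 4-leaf plants, using a surfactant-containing non-phytotoxic solvent.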

wheat = experiment: Test B pre/postemergence wheat; format: in vivo, Triticum aestivum; conditions: for Plant response rating, Wheat: Rate 250 g/ha
In short: as §1

pigweed = experiment: Test B pre/postemergence pigweed; format: in vivo, Amaranthus retroflexus
In short: as §1

giant foxtail = experiment: Test B pre/postemergence giant foxtail; format: in vivo, Setaria faberii
In short: as §1

wild oat = experiment: Test B pre/postemergence wild oat; format: in vivo, Avena fatua; conditions: for Plant response rating, Wild oats: Rate 250 g/ha
In short: as §1

crabgrass = experiment: Test B pre/postemergence crabgrass; format: in vivo, Digitaria sanguinalis
In short: as §1

velvetleaf = experiment: Test B pre/postemergence velvetleaf; format: in vivo, Abutilon theophrasti; conditions: for Plant response rating, Velvetleaf: Rate 250 g/ha
In short: as §1

rice = experiment: Test B flood test rice; format: in vivo, Oryza sativa
In short: (§2)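 Flood test on plants grown to the 2-leaf stage; treated plants kept in greenhouse twelve to sixteen days, then visually rated against controls on a 0 (no effect) to 10 (complete control) scale.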

soybean = experiment: Test B pre/postemergence soybean; format: in vivo, Glycine max
In short: as §1

sugar beet = experiment: Test B pre/postemergence sugar beet; format: in vivo, Beta vulgaris; conditions: for Plant response rating, Sugarbeets: Rate 250 g/ha
In short: as §1

morningglory = experiment: Test B pre/postemergence morningglory; format: in vivo, Ipomoea hederacea
In short: as §1

cocklebur = experiment: Test B pre/postemergence cocklebur; format: in vivo, Xanthium strumarium
In short: as §1

smallflower flatsedge = experiment: Test B flood test smallflower flatsedge; format: in vivo, Cyperus difformis
In short: as §2

corn = experiment: Test B pre/postemergence corn; format: in vivo, Zea mays
In short: as §1

duck salad = experiment: Test B flood test duck salad; format: in vivo, Heteranthera limosa
In short: as §2

purple nutsedge = experiment: Test B pre/postemergence purple nutsedge; format: in vivo, Cyperus rotundus
In short: as §1

[1] = Postemergence, Rate 125 g/ha, scale of 0 to 10 where 0 is no effect and 10 is complete control
[2] = Postemergence, Rate 250 g/ha, scale 0 to 10, 0 no effect, 10 complete control
[3] = Preemergence, Rate 62 g/ha, scale 0 to 10 (0 no effect, 10 complete control)
[4] = Preemergence, Rate 125 g/ha, scale 0 to 10 (0 no effect, 10 complete control)
[5] = Preemergence, Rate 250 g/ha, scale of 0 to 10 where 0 is no effect and 10 is complete control
[6] = Preemergence, Rate 500 g/ha, scale 0 to 10 (0 no effect, 10 complete control)
[7] = Rate 62 g/ha, Postemergence, scale of 0 to 10 where 0 is no effect and 10 is complete control
[8] = Rate 500 g/ha, Postemergence, scale 0 to 10, 0 no effect, 10 complete control
[9] = Preemergence, Rate 125 g/ha, 0 is no effect, 10 is complete control
[10] = Preemergence, scale of 0 to 10 where 0 is no effect and 10 is complete control
[11] = Postemergence, scale 0 to 10, 0 is no effect, 10 is complete control
[12] = Rate 250 g/ha, Postemergence, scale 0 to 10, 0 is no effect, 10 is complete control
[13] = Postemergence (flood test species), Rate 125 g/ha, scale of 0 to 10 where 0 is no effect and 10 is complete control
[14] = Rate 62 g/ha, Postemergence section, flood test species, scale of 0 to 10 where 0 is no effect and 10 is complete control
[15] = Rate 250 g/ha, Postemergence (flood test), scale 0 to 10, 0 is no effect, 10 is complete control
[16] = Rate 250 g/ha, headed Pre-emergence (flood test species), scale 0 to 10 (0 no effect, 10 complete control)
[17] = Rate 500 g/ha, headed Pre-emergence (flood test species), scale 0 to 10 (0 no effect, 10 complete control)
[18] = Rate 500 g/ha, listed under Postemergence (flood test species), scale 0 to 10, 0 no effect, 10 complete control
[19] = Rate 1000 g/ha, Pre-emergence (as headed), scale 0 to 10
[20] = Rate 2000 g/ha, Pre-emergence (as headed), scale 0 to 10

CC(C)N(C(=O)n1oc(=O)n(C(C)C)c1=O)c1ccc(F)cc1F [Compound 109]
Rape plant response rating (rape; [1]): 3 | Rape plant response rating (rape; [2]): 4 | Rape plant response rating (rape; [3]): 7 | Plant response rating, Rape (rape; [4]): 8 | Plant response rating, Rape (rape; [5]): 9 | Rape plant response rating (rape; [6]): 10 | Rape plant response rating (rape; [7]): 3 | Rape plant response rating (rape; [8]): 6 | Wheat plant response rating (wheat; [1]): 0 | Wheat plant response rating (wheat; [3]): 0 | Wheat plant response rating (0 to 10 scale) (wheat; [9]): 5 | Plant response rating, Wheat (wheat; [10]): 9 | Wheat plant response rating (wheat; [6]): 10 | Wheat plant response rating (wheat; [7]): 0 | Plant response rating, Wheat (wheat; [11]): 5 | Wheat plant response rating (wheat; [8]): 6 | Redroot pigweed plant response rating (pigweed; [1]): 5 | Redroot pigweed plant response rating (pigweed; [3]): 10 | Plant response rating, Redroot pigweed (pigweed; [4]): 10 | Plant response rating, Redroot pigweed (pigweed; [5]): 10 | Redroot pigweed plant response rating (pigweed; [6]): 10 | Redroot pigweed plant response rating (pigweed; [7]): 3 | Plant response rating, Redroot pigweed (pigweed; [12]): 8 | Redroot pigweed plant response rating (pigweed; [8]): 8 | Giant foxtail plant response rating (giant foxtail; [1]): 9 | Giant foxtail plant response rating (giant foxtail; [2]): 9 | Giant foxtail plant response rating (giant foxtail; [3]): 10 | Plant response rating, Giant foxtail (giant foxtail; [4]): 10 | Plant response rating, Giant foxtail (giant foxtail; [5]): 10 | Giant foxtail plant response rating (giant foxtail; [6]): 10 | Giant foxtail plant response rating (giant foxtail; [7]): 8 | Giant foxtail plant response rating (giant foxtail; [8]): 9 | Wild oats plant response rating (wild oat; [1]): 0 | Wild oats plant response rating (wild oat; [3]): 8 | Wild oats plant response rating (0 to 10 scale) (wild oat; [9]): 10 | Plant response rating, Wild oats (wild oat; [10]): 10 | Wild oats plant response rating (wild oat; [6]): 10 | Wild oats plant response rating (wild oat; [7]): 0 | Plant response rating, Wild oats (wild oat; [11]): 4 | Wild oats plant response rating (wild oat; [8]): 7 | Crabgrass plant response rating (crabgrass; [1]): 9 | Crabgrass plant response rating (crabgrass; [2]): 9 | Crabgrass plant response rating (crabgrass; [3]): 10 | Plant response rating, Crabgrass (crabgrass; [4]): 10 | Plant response rating, Crabgrass (crabgrass; [5]): 10 | Crabgrass plant response rating (crabgrass; [6]): 10 | Crabgrass plant response rating (crabgrass; [7]): 8 | Crabgrass plant response rating (crabgrass; [8]): 9 | Velvetleaf plant response rating (velvetleaf; [1]): 2 | Velvetleaf plant response rating (velvetleaf; [3]): 5 | Velvetleaf plant response rating (0 to 10 scale) (velvetleaf; [9]): 7 | Plant response rating, Velvetleaf (velvetleaf; [10]): 10 | Velvetleaf plant response rating (velvetleaf; [6]): 10 | Velvetleaf plant response rating (velvetleaf; [7]): 0 | Plant response rating, Velvetleaf (velvetleaf; [11]): 6 | Velvetleaf plant response rating (velvetleaf; [8]): 6 | Rice plant response rating (rice; [13]): 0 | Rice plant response rating (rice; [14]): 0 | Plant response rating, Rice (rice; [15]): 0 | Rice plant response rating (rice; [16]): 0 | Plant response rating, Rice (rice; [17]): 0 | Rice plant response rating (rice; [18]): 0 | Rice plant response rating (rice; [19]): 0 | Rice plant response rating (rice; [20]): 7 | Soybean plant response rating (soybean; [1]): 6 | Soybean plant response rating (soybean; [3]): 0 | Plant response rating, Soybean (soybean; [4]): 7 | Plant response rating, Soybean (soybean; [5]): 8 | Soybean plant response rating (soybean; [6]): 9 | Soybean plant response rating (soybean; [7]): 4 | Plant response rating, Soybean (soybean; [12]): 7 | Soybean plant response rating (soybean; [8]): 7 | Sugarbeets plant response rating (sugar beet; [1]): 4 | Sugarbeets plant response rating (sugar beet; [3]): 8 | Sugarbeets plant response rating (0 to 10 scale) (sugar beet; [9]): 10 | Plant response rating, Sugarbeets (sugar beet; [10]): 10 | Sugarbeets plant response rating (sugar beet; [6]): 10 | Sugarbeets plant response rating (sugar beet; [7]): 3 | Plant response rating, Sugarbeets (sugar beet; [11]): 6 | Sugarbeets plant response rating (sugar beet; [8]): 7 | Morningglory plant response rating (morningglory; [1]): 3 | Morningglory plant response rating (morningglory; [2]): 5 | Morningglory plant response rating (morningglory; [3]): 0 | Plant response rating, Morningglory (morningglory; [4]): 5 | Plant response rating, Morningglory (morningglory; [5]): 6 | Morningglory plant response rating (morningglory; [6]): 10 | Morningglory plant response rating (morningglory; [7]): 3 | Morningglory plant response rating (morningglory; [8]): 5 | Cocklebur plant response rating (cocklebur; [1]): 3 | Cocklebur plant response rating (cocklebur; [2]): 4 | Cocklebur plant response rating (cocklebur; [3]): 0 | Plant response rating, Cocklebur (cocklebur; [4]): 0 | Plant response rating, Cocklebur (cocklebur; [5]): 0 | Cocklebur plant response rating (cocklebur; [6]): 5 | Cocklebur plant response rating (cocklebur; [7]): 2 | Cocklebur plant response rating (cocklebur; [8]): 5 | S. Flatsedge plant response rating (smallflower flatsedge; [13]): 0 | S. Flatsedge plant response rating (smallflower flatsedge; Pre-emergence, Rate 1000 g/ha, scale 0 to 10 (0 no effect, 10 complete control)): 8 | S. Flatsedge plant response rating (smallflower flatsedge; [14]): 0 | Plant response rating, S. Flatsedge (smallflower flatsedge; [15]): 0 | S. Flatsedge plant response rating (smallflower flatsedge; [16]): 0 | Plant response rating, S. Flatsedge (smallflower flatsedge; [17]): 0 | S. Flatsedge plant response rating (smallflower flatsedge; [18]): 0 | S. Flatsedge plant response rating (smallflower flatsedge; [20]): 8 | Corn plant response rating (corn; [1]): 0 | Corn plant response rating (corn; [2]): 3 | Corn plant response rating (corn; [3]): 0 | Plant response rating, Corn (corn; [4]): 3 | Plant response rating, Corn (corn; [5]): 7 | Corn plant response rating (corn; [6]): 9 | Corn plant response rating (corn; [7]): 0 | Corn plant response rating (corn; [8]): 5 | Ducksalad plant response rating (duck salad; [13]): 0 | Ducksalad plant response rating (duck salad; [14]): 0 | Ducksalad plant response rating (duck salad; [16]): 0 | Plant response rating, Ducksalad (duck salad; [17]): 0 | Ducksalad plant response rating (duck salad; [18]): 0 | Ducksalad plant response rating (duck salad; [19]): 1 | Ducksalad plant response rating (duck salad; [20]): 6 | Ducksalad plant response rating (duck salad; flood test, listed under Postemergence, Rate 250 g/ha, scale 0 to 10, 0 no effect, 10 complete control): 0 | Nutsedge plant response rating (purple nutsedge; [1]): 0 | Nutsedge plant response rating (purple nutsedge; [2]): 0 | Nutsedge plant response rating (purple nutsedge; [3]): 0 | Plant response rating, Nutsedge (purple nutsedge; [4]): 0 | Plant response rating, Nutsedge (purple nutsedge; [5]): 0 | Nutsedge plant response rating (purple nutsedge; [6]): 0 | Nutsedge plant response rating (purple nutsedge; [7]): 0 | Nutsedge plant response rating (purple nutsedge; [8]): 4
